# Data reported in patent publication US20260124268A1 (priority 2019, published 2026).
# “And” between values parts separate entries of the source, which are not always exact repeats. Equal values may be shown once. Read-outs that look alike come from different tables or passages of the source.
# What was measured:
# [1] = tested on: Clostridium perfringens (CL-15, Type-A); type: in vivo, broilers (male Cobb 500); conditions: SF: salinomycin 0.042% in feed
# [2] = tested on: Clostridium perfringens (CL-15, Type-A); type: in vivo, broilers (male Cobb 500); conditions: SF: salinomycin 0.042% in feed, day 21
# [3] = Evaluation of litter score (percent caked litter); type: in vivo, broilers (male Cobb 500); conditions: SF: salinomycin 0.042% in feed; day 28
# Method: Evaluation of Litter Score. The litter from each pen was evaluated on day 28 of the trial. The litter was evaluated based on percentage of caked litter in the pen. The percentages were grouped from 0-19, 20-39, 40-59, 60-79, and 80-100%. The mid-value from the percentage range was used to calculate the average pen litter score.
# [4] = Growth performance and feed efficiency of challenged broilers; type: in vivo, broilers (male Cobb 500); conditions: SF: salinomycin 0.042% in feed; for Avg. daily gain / Weight gain: per bird
# Excerpt: Bird Placement. The birds in this study were sourced from a commercial hatchery and were housed at the Colorado Quality Research facility (CQR). Healthy male Cobb 500 were used in this study and were vaccinated for Mareks at the hatchery and upon arrival at CQR the birds were vaccinated for Newcastle and Infectious Bronchitis and were randomly divided into five treatments. At placement 24 birds were placed into each pen with 11 replicates per treatment. On day eight birds were culled or replaced as needed to have 22 birds per pen with the pen being the statistical unit. The treatments were assigned to blocks and randomized within blocks. All birds in this experiment were discarded on site. All data was collected by the Colorado Quality Research (CQR) staff. The protocol MS-18-1 was approved by the CQR IACUC committee.
# Basal and Experimental Diets. The starter, grower, and basal diets were manufactured at the CQR feed mill using CQR formulated diets and described in Table 1. The feed was made and stored in bulk. The final experimental diet mixing, pelleting and crumbling was conducted at CQR using a 500-lb capacity vertical mixer (Seedburo, Golden Valley, MN), a 4000-lb capacity vertical mixer (Prater, Bolingbrook, IL) and/or a 14,000-lb horizontal mixer (H&S Manufacturing, Marshfield, WI) and a California pellet mill (CPM Co., Crawfordsville, IN). The feed was stored in 50-lb feed sacks until needed.
# The product was made fresh daily and administered in the water using a liquid medicator (Farmer Boy Ag, Myerstown, PA). A different stock solution was prepared for each treatment and the stock solutions were weighed each day to determine the amount of product consumed. The stock solutions were adjusted accordingly to ensure that the correct dose has been administered based on water consumption. The antibiotic control SF birds were administered Salinomycin (Sacox 60, Phibro Animal Health Corp., Teaneck, NJ) in the feed at 0.042% for the whole experimental period. […] If abnormal conditions or abnormal behavior is noted at any of the twice-daily observations they were documented and added to the study records. The maximum and minimum temperatures were recorded daily. The dead birds were collected and counted each day from each pen. The mortality was recorded on pen sheet and the cause of death was recorded. The pen mortality and the NE-associated mortality were calculated based on total mortality and as a percentage. The percentages were calculated based on the number of re-count birds on day 8. The birds were weighed on day 0, 17, 28, and 35 and the average daily gain was calculated for each of these time periods. The final pen weight was also measured. The amount of feed consumed was calculated from the starter feed (DO-17), the grower feed (D18-28), finisher feed (D29-35), and over the whole period (DO-35). The feed efficiency and adjusted feed efficiency were calculated to compare different growth periods. On day 21, 5 birds from each pen were randomly selected using a first caught method. The birds were sacrificed and evaluated for intestinal lesions to score the severity of the lesion scores using the scale in Table 4.
# MRSA 81M = test: microbe, parasite or virus in culture; type: cell-based; conditions: Staphylococcus aureus, 24 h
# MRSA LA = test: microbe, parasite or virus in culture; type: cell-based; conditions: Staphylococcus aureus, 24 h
# [5] = Day 28-35, % of birds at day 8 re-count
smiles,measurement,setting,value
"CC[C@@H](C(=O)[C@@H](C)[C@@H](O)[C@H](C)[C@@H]1O[C@@H]([C@@H](CC)C(=O)O)CC[C@@H]1C)[C@H]1O[C@]2(C=C[C@@H](O)[C@]3(CC[C@@](C)([C@H]4CC[C@](O)(CC)[C@H](C)O4)O3)O2)[C@H](C)C[C@@H]1C [Salinomycin, salinomycin]",Total Mortality,"[1]; Day 0-17, % of birds at day 8 re-count",(2.1%)
same,Total Mortality,"[1]; Day 0-17, birds dead",5
same,Total Mortality,"[1]; Day 0-35, % of birds at day 8 re-count",(5.4%)
same,NE Mortality,"[1]; Day 0-35, birds dead",5
same,Total Mortality,"[1]; Day 0-35, birds dead",13
same,Total Mortality,"[1]; Day 17-28, % of birds at day 8 re-count",(2.1%)
same,NE Mortality,"[1]; Day 17-28, birds dead",4
same,Total Mortality,"[1]; Day 17-28, birds dead",5
same,NE Mortality,[1]; [5],(0.4%)
same,Total Mortality,[1]; [5],(1.2%)
same,NE Mortality,"[1]; Day 28-35, birds dead",1
same,Total Mortality,"[1]; Day 28-35, birds dead",3
same,Reduction in lesion score compared to NTC,[2],50.6%
same,Average lesion score,[2]; scale 0-4,0.80
same,Average percent caked litter,[3],79%
same,Adj. F:G (adjusted feed-to-gain ratio),[4]; D 0-17,1.287
same,F:G (feed-to-gain ratio),[4]; D 0-17,1.320
same,Avg. daily gain,[4]; D 0-17,28.1 g/day
same,Weight gain,[4]; D 0-17,0.479 kg
same,Adj. F:G (adjusted feed-to-gain ratio),[4]; D 0-28,1.368
same,F:G (feed-to-gain ratio),[4]; D 0-28,1.656
same,Avg. daily gain,[4]; D 0-28,50.3 g/day
same,Weight gain,[4]; D 0-28,1.407 kg
same,Adj. F:G (adjusted feed-to-gain ratio),[4]; D 0-35,1.448
same,F:G (feed-to-gain ratio),[4]; D 0-35,1.666
same,Avg. daily gain,[4]; D 0-35,59.6 g/day
same,Weight gain,[4]; D 0-35,2.087 kg
same,Adj. F:G (adjusted feed-to-gain ratio),[4]; D17-28,1.421
same,Difference in weight gain compared to NTC,[4]; D17-28,−0.21%
same,F:G (feed-to-gain ratio),[4]; D17-28,1.947
same,Weight gain less than NTC birds,[4]; D17-28,2 grams
same,Avg. daily gain,[4]; D 17-28,84.4 g/day
same,Weight gain,[4]; D 17-28,0.928 kg
same,Adj. F:G (adjusted feed-to-gain ratio),[4]; D 28-35,1.654
same,F:G (feed-to-gain ratio),[4]; D 28-35,1.691
same,Avg. daily gain,[4]; D 28-35,97.1 g/day
same,Weight gain,[4]; D 28-35,0.680 kg
same,Increase in the harvest weight (final pen weight) compared to NTC,[4]; day 35,18.2%
same,Average pen weight,[4]; live pen weight at day 35,34.59 kg and 34.59a kg
CO[C@@]1(NC(=O)Cc2cccs2)C(=O)N2C(C(=O)O)=C(COC(N)=O)CS[C@@H]21 [cefoxitin],MIC,MRSA 81M,100 µg/mL
same,MIC,MRSA LA,60 µg/mL
